Experimental data as given in US8883847B2, “Compositions and methods of treatment using modulators of motoneuron diseases” (KineMed, Inc., priority 2006, dated 2014).

Test system: SOD1-G93A TGN mice
Assay: Noscapine-MK801 treatment of SOD1-G93A TGN mice: gait/stride length, disease onset, mortality
Format: in vivo, mouse
Details: for Mortality: age at death; for Onset of motor deficits: age at onset
Description: FIG. 6. Noscapine-MK801 combination delays onset of disease and death in SOD1-G93A TGN mice. The one and two-drug treatments were started at an early (i.e., presymptomatic) stage of disease (7 weeks). SOD1-G93A TGN mice were treated 3 times a week with noscapine (0.2 mg/kg body weight) and/or MK-801 (12 mg/kg body weight/day). Mice received noscapine intraperitoneally and MK-801 in drinking water.
Female SOD-1 G93A TGN mice were obtained from Jackson laboratory (strain #2726). The controls were matched litter mates. Treatment groups were three per group. Noscapine was injected intraperitoneal in the thigh 3 times/week (0.2 mg/kg i.p.) and MK801 was administered continuously in drinking water (12 mg/kg/d). Gait analysis was done by the method of Wooley et al., Muscle Nerve 2005 32(1):43-50 and Carter et al. J. Neurosci., 19(8):3248-3257, hereby incorporated by reference in their entirety.
For clinical assessment endpoints scoring was selected as follows:
GROUP CLASSIFICATION: Presymptomatic
Clinical signs: Full mobility and no observable difference in behavior from age-matched controls (Gait or stride length analysis).
GROUP CLASSIFICATION: Onset
Clinical signs: Abnormal Gait or stride length analysis and hindlimb weakness: >40% reduction in stride length vs. age-matched littermates.
GROUP CLASSIFICATION: End Stage (euthanization)
Clinical signs: noticeable and complete hind limb paralysis (which in this strain occurs more on one limb than the other) and inability to right themselves in 5 sec time window. This stage starts usually as the mice are failing the gait analysis test and enter the End stage. Therefore, Transgenic SOD1-G93A TGN mice are euthanized at the onset of noticeable and complete hindlimb paralysis and inability to right themselves in 5 sec time window.

Question: How did the Mortality turn out when `C[C@]12N[C@H](Cc3ccccc31)c1ccccc12` [MK-801, Dizocilipine] was run?
Answer: 112 to 119 days

Question: And the “Onset of motor deficits” value?
Answer: 105 to 112 days

Question: Which results are given for `COc1ccc2c(c1OC)C(=O)O[C@@H]2[C@H]1c2c(cc3c(c2OC)OCO3)CCN1C` [Noscapine, noscapine]?
Answer: Mortality: 112 to 119 days; Onset of motor deficits: 98 to 105 days
